Blank lines part the entries; values can stand above or below the compound they belong to.
What was measured:
AHR [1] = assay: Cyp1a1 mRNA induction in TH17cond CD4+ T cells (qPCR); assay type: cell-based, mouse
Experimental: To activate primary T cells, spleens and/or lymph nodes (LN) were removed, disaggregated and red blood cells lysed. Cells were stimulated with 1 μg/ml of the CD3 monoclonal antibody (2C11) and 2 μg/ml anti-CD28 (37.51; ebiosciences) to trigger the TCR. Naive CD4^+ T cells and 24 h TCR-activated CD4^+ T cells were purified using CD4 isolation kit (EasySep, STEMCELL Technologies). […] Proleukin, Novartis) for a further 3–5 days. To generate TH1s and TH17s, murine CD8^+ T cells were depleted from lymph node preparations using CD8 depletion kit (EasySep, STEMCELL Technologies). […] RnD Systems) and IL-2 (20 ng/ml) and for TH17s; cytokines IL-6 (50 ng/ml, Peprotech), IL-1β (10 ng/ml, Peprotech) and TGFβ (2 ng/ml, Peprotech). TH17s were cultured in IMDM (Gibco). All other cells were cultured in RPMI 1640 containing L-glutamine (Gibco). Culture media was supplemented with 10% FBS (Gibco), 50 μM β-mercaptoethanol (β-ME, Sigma) and penicillin/streptomycin (Gibco). Cells were incubated at 37 °C with 5% CO2 throughout. […] RNA was purified using the RNeasy RNA purification Mini Kit (Qiagen) (Genomic DNA was digested with RNase-free DNase (Qiagen) following manufacturer instructions) and reverse-transcribed using the iScript cDNA synthesis kit (BioRad). Quantitative PCR was performed in 96-well plate format using iQ SYBR Green-based detection (BioRad) on a BioRad iCycler.

AHR [2] = system: AHR; parameters: method as in PMID 25657351, PMID 29279331; details: cited from earlier work
[3] = biological target: T1, System L transporter SLC7A5 (Mus musculus, UniProt Q9Z127); assay: Radiolabelled 3H-kynurenine uptake in T cells; assay type: cell-based; details: compared with kynurenine Km ~200 μM
T1 construct: endogenous in cells
Experimental: To activate primary T cells, spleens and/or lymph nodes (LN) were removed, disaggregated and red blood cells lysed. Cells were stimulated with 1 μg/ml of the CD3 monoclonal antibody (2C11) and 2 μg/ml anti-CD28 (37.51; ebiosciences) to trigger the TCR. Naive CD4^+ T cells and 24 h TCR-activated CD4^+ T cells were purified using CD4 isolation kit (EasySep, STEMCELL Technologies). […] Proleukin, Novartis) for a further 3-5 days. To generate TH1s and TH17s, murine CD8^+ T cells were depleted from lymph node preparations using CD8 depletion kit (EasySep, STEMCELL Technologies). […] RnD Systems) and IL-2 (20 ng/ml) and for TH17s; cytokines IL-6 (50 ng/ml, Peprotech), IL-1β (10 ng/ml, Peprotech) and TGFβ (2 ng/ml, Peprotech). TH17s were cultured in IMDM (Gibco). All other cells were cultured in RPMI 1640 containing L-glutamine (Gibco). Culture media was supplemented with 10% FBS (Gibco), 50 μM β-mercaptoethanol (β-ME, Sigma) and penicillin/streptomycin (Gibco). Cells were incubated at 37 °C with 5% CO2 throughout. […] Cells were pelleted below the oil, the aqueous supernatant solution, followed by the silicon oil/dibutyl phthalate mixture was aspirated, and the cell pellet underneath resuspended in 200 μl NaOH (0.5 M) and β-radioactivity measured by liquid scintillation counting in a Beckman LS 6500 Multi-Purpose Scintillation Counter (Beckman Coulter). […] Where indicated, the sodium free buffer was prepared using TMACl as described in Baird et al.[35] Data are expressed as molecules radiotracer per cell per minute. […] All other chemicals were obtained from Sigma.

mTORC1 = mTORC1 activity in CTLs after leucine removal and refeeding; assay type: cell-based, mouse; details: CTLs removed from leucine, refed leucine 100uM ± Kyn 100uM
Description: page 13: • We […] would not be able to measure the levels of in vivo ky nurenine uptake with this assay (for the reasons explained above). However, this is a pertinent question, and will relate to the total amount of available kynurenine compared to alternative System L substrates. The detailed micro-environmental metabolomics techniques required to perform this kind of analysis is beyond the scope of this paper, however we have tried to address this point in the discussion. Second, did CD4 T cells (Foxp3-) and Tregs (Foxp3+) from Lm-infected mice also i mport Ky n? […] This, also, is a very interesting aspect, however we feel that it is beyond the scope of this paper. Point 4: Data presented in Figures 4 & 5 show convincingly that SLC7A5 ablation in CD4 T cells abolishes Kyn uptake in CD4 T cells selectively and that imported Kyn triggers AhR signaling in CD4 T cells, respectively. However, no data is presented to address the biological significance of these findings, specifically regarding the reported ability of Kyn to suppress Th1 responses (e.g. IFNg production) or to reinforce Treg-mediated suppression of effector T cells via AhR signaling. […]

[4] = biological target: T1, System L transporter SLC7A5; assay: Flow cytometry kynurenine uptake assay (450 nm fluorescence) in T cells; assay type: cell-based; details: for IC50: 37 °C; for IC50 / effect on kynurenine transport (450 nm fluorescence): 4 min; for effect on kynurenine transport ex vivo: D7 rLM-infected CD8+ T cells; for effect on kynurenine transport ex vivo / effect on kynurenine transport (450 nm fluorescence): BCH 10 mM, Leu 5 mM, Lys 5 mM; for effect on kynurenine transport (450 nm fluorescence): TCR-stimulated CD8+ T cells or CTLs
Description: For cell surface staining, antibodies conjugated to FITC, PE, APC, Alexafluor 647 (A647), APC-efluor780 (APCe780), and PerCPCy5.5 were obtained from either BD Pharmingen, eBioscience or Biolegend. Fc receptors were blocked using Fc Block (BD Pharmingen). Antibody clones used were: CD4 (RM4-5), CD8a (53-6.7), TCRβ (H57-597), CD44 (IM7), CD45.1 (A20), CD45.2 (104) and CD98 (RC388). Cells were fixed using 1% paraformaldehyde. Standard intracellular cytokine staining protocols were followed for IFNγ (clone XMG1.2; Biolegend) staining. Data were acquired on a LSR Fortessa II with DIVA software or a FACSVerse flow cytometer with FACSuite software (BD Biosciences) and analysed using FlowJo software version 9.9.5 (TreeStar).
Start with at least 1 × 10^6 cells per condition, to obtain at least 200,000 events analysed by flow cytometry at the end of the protocol. […] If required, surface cell antibody staining should be performed prior to uptake assay protocol. This may be performed at room temperature or 4 °C, however test samples must be warmed to 37 °C, e.g. in water bath, prior to kynurenine uptake. (As with all multi-parameter flow cytometry, appropriate antibody staining controls must also be performed.) Samples can be fixed immediately after uptake assay by addition of 4% (vol/vol) paraformaldehyde (PFA; to a final concentration of 1%) for 30 min at room temperature.
For kynurenine uptake assay; pre-warm kynurenine (800 μM, in HBSS), BCH (40 mM, in HBSS) and lysine (20 mM, HBSS) and HBSS to 37 °C. After surface antibody staining of samples, resuspend cells in 200 μl warmed HBSS (1–5 × 10^6 cells in FACS tubes, or scale accordingly into plates). Keep cells in water bath at 37 °C. Add 100 μl of HBSS, or BCH or lysine to appropriate samples. Add 100 μl HBSS to no kynurenine controls (final volume 400 μl). Finally, add 100 μl kynurenine to appropriate samples. Stop uptake after 4 min by adding 125 μl 4% PFA for 30 min at room temperature, in the dark. The final concentrations for uptake assay are: 200 μM kynurenine; +/-10 mM BCH; +/-5 mM lysine. After fixation, wash cells twice in PBS/0.5% BSA and resuspend in PBS/0.5% BSA prior to acquisition on flow cytometer. The 405 nm laser and 450/50 BP filter are used for kynurenine fluorescence detection.
To monitor kynurenine uptake in live cells, acquire data on flow cytometer immediately following addition of kynurenine and plot fluorescence against time.

T1 sequence (Q9Z127 whole entry): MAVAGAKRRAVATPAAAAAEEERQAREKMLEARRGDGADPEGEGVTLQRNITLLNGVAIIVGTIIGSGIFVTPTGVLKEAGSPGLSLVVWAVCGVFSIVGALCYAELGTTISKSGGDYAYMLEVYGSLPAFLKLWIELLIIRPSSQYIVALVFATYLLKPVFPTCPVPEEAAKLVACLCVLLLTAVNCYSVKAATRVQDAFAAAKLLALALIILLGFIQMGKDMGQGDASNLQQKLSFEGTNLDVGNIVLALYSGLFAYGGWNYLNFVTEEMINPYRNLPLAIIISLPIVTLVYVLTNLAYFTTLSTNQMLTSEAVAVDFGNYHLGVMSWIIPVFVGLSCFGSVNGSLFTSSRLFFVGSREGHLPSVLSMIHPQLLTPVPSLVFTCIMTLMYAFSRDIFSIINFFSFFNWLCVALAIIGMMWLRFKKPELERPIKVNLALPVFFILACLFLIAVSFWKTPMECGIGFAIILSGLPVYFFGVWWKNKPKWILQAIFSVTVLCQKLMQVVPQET
T1 sequence (P10852 whole entry partner): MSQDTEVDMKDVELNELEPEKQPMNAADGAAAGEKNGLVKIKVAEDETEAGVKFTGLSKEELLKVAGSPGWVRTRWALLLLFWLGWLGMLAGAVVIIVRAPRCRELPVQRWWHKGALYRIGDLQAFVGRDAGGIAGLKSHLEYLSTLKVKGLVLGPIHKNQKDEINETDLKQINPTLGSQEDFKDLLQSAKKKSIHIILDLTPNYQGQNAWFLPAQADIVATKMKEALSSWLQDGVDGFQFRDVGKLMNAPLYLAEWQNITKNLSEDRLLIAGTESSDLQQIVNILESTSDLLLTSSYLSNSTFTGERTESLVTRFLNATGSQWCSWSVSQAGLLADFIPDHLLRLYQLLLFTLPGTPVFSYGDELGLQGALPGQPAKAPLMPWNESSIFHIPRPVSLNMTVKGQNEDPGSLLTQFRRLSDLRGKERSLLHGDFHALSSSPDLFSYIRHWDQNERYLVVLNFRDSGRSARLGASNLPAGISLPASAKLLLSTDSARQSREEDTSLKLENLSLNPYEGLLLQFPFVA

- Km of other System L substrates relative to Km of kynurenine [3]: ~ 10 fold less
SMILES: CSCC[C@H](N)C(=O)O [methionine]

- Km of other System L substrates relative to Km of kynurenine [3]: ~ 10 fold less
SMILES: N[C@@H](Cc1c[nH]c2ccccc12)C(=O)O [tryptophan]

Further lines, the compound ahead of its results:

SMILES: Cc1ccccc1N=Nc1ccc(NC(=O)c2ccnn2C)c(C)c1 [CH223191]
- effect on kynurenine-induced Cyp1A1 mRNA (AHR [1]; D3 TH17cond cells, kynurenine 10 μM 2 h, CH223191 30 μM): completely blocked

SMILES: O=Cc1c2[nH]c3ccccc3c2cc2[nH]c3ccccc3c12 [FICZ, 6-formylindolo[3,2-b]carbazole]
- Cyp1a1 mRNA induction, D3 versus D5 post activation (AHR [1]; TH17cond CD4+ T cells, kynurenine 100 μM or FICZ 300 nM, 2 h): equivalent on D3 and D5
- concentrations needed to activate the AHR (AHR [2]): pM/nM range

SMILES: Clc1cc2c(cc1Cl)Oc1cc(Cl)c(Cl)cc1O2 [TCDD, 2,3,7,8-tetrachlorodibenzo-p-dioxin]
- concentrations needed to activate the AHR (AHR [2]): pM/nM range

SMILES: CC(C)C[C@H](N)C(=O)O [leucine]
- Km of other System L substrates relative to Km of kynurenine [3]: ~ 10 fold less
- effect on mTORC1 activity (mTORC1): establishes mTORC1 activity
- IC50 ([4]; CTL): 411 ± 30 µM
- IC50 ([4]; D7 rLM CD8+ effector T cells from spleen, ex vivo): 168 ± 38 µM
- effect on kynurenine transport ex vivo [4]: blocked
- effect on kynurenine transport (450 nm fluorescence) [4]: blocks kynurenine transport to comparable levels as BCH

SMILES: NCCCC[C@H](N)C(=O)O [lysine]
- effect on kynurenine uptake ([4]; CD3/CD28 activated wild-type T cells in co-culture, 5 mM lysine, BCH): did not inhibit kynurenine uptake
- effect on kynurenine transport ex vivo [4]: not by lysine competition
- effect on kynurenine transport (450 nm fluorescence) [4]: does not affect kynurenine transport

Reference: article PMC5958064, “Single cell analysis of kynurenine and System L amino acid transport in T cells” (Nature Communications, 2018)
